The source of these data is BindingDB's records for patent US20250223301 (Inventisbio Co., 2025).

Test [1] addresses Diacylglycerol kinase alpha (Homo sapiens, UniProt P23743). As to the kind of experiment: DGK ADP-Glo Kinase Assay. The procedure: (§1) Luminescence was recorded using an Tecan SPARK microplate reader.
(In general: ADP-Glo turns the ADP formed in a reaction into a luminescent signal.)

Test [2] concerns the target Diacylglycerol kinase zeta (Homo sapiens, UniProt Q13574). The test can be described thus: DGK ADP-Glo Kinase Assay. Here is the method:
as §1

Sequence of Diacylglycerol kinase alpha (P23743 whole entry): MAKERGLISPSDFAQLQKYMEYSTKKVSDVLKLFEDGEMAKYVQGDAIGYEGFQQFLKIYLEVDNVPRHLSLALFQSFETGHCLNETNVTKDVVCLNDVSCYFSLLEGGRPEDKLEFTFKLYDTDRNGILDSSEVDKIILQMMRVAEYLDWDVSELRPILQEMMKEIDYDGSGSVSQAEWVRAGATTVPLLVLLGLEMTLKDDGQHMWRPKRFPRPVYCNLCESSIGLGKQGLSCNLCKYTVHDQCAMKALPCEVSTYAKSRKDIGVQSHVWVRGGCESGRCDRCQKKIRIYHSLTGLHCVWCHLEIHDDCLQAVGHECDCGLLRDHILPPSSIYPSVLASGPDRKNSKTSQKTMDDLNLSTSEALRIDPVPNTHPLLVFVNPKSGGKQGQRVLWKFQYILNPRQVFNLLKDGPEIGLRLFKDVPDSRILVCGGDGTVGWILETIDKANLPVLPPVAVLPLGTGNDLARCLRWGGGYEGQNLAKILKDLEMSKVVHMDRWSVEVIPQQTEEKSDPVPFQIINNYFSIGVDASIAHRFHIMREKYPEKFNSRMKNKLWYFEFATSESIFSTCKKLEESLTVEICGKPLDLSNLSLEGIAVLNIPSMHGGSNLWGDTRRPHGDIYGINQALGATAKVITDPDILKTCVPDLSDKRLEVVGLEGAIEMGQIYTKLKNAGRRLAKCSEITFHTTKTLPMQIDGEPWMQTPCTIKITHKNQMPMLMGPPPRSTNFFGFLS
Sequence of Diacylglycerol kinase zeta (Q13574 as listed by the source): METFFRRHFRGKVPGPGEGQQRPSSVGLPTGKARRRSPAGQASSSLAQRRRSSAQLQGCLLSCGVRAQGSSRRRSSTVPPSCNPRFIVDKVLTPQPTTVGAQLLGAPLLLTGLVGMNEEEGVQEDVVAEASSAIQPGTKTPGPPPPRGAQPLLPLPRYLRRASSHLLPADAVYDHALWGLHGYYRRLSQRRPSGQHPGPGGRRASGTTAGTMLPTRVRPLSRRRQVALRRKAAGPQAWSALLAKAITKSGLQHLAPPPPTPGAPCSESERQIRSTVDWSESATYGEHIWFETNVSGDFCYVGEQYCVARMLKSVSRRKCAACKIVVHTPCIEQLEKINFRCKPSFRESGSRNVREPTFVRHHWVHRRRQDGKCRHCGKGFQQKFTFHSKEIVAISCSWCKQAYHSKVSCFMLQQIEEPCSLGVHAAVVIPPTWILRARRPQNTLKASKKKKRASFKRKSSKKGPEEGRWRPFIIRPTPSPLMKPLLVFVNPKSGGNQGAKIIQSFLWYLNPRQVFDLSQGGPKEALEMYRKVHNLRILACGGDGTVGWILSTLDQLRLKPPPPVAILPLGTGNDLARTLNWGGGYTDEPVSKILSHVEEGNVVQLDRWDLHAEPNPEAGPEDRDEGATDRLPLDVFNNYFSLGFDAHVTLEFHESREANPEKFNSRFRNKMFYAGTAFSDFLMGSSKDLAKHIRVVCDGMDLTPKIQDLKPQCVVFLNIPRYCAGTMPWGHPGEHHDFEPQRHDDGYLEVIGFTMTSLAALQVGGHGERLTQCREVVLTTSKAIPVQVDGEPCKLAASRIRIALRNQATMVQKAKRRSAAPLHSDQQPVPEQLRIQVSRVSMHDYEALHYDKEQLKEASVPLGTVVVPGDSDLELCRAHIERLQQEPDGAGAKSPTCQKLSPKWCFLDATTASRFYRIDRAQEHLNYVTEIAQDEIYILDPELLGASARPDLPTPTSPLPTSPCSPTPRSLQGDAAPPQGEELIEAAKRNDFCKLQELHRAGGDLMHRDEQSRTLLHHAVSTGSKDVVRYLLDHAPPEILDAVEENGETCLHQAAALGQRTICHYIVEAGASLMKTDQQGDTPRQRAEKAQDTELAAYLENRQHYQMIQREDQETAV

Consider `CCC(c1cccc(S(F)(F)(F)(F)F)c1)N1C[C@H](CC)N(c2nc(=O)n(C)c3ccc(C#N)nc23)C[C@H]1CC` (single isomer, unassigned) [US20250223301, Compound 55], for which the IC50 (in general, the point on the concentration scale where inhibition reaches its midpoint) amounted to 76 nM in test [1] and 12 nM in test [2].
